Test results taken from patent publication US4265901A, “2-Oxybenzimidazoline compounds” (priority 1979, dated 1981).
“And” between values parts separate entries of the source, which are not always exact repeats. Identical values can stand only once. Counter-ions that a name gives are not always drawn.

Assays:
Mexican bean beetle = Mexican bean beetle test; type: in vivo, Epilachna varivestis; settings: 4 days; on Mexican Bean Beetle Stom. (mortality rating): ranges in brackets are in %
Procedure: In this evaluation, each compound to be tested was dissolved in a 1:1 mixture of acetone and ethanol containing a small amount of Toximul R and Toximul S (each a sulfonate/nonionic blend produced by Stephan Chemical Company, Northfield, Ill.). The solution was then diluted with distilled water to a concentration of 1000 ppm of test compound.
This test was conducted with second instar larvae of Epilachna varivestis Mulsant, order Coleoptera, family Coccinellidae. Larvae for the test, of uniform size and not molting, were picked by hand from flats of Bountiful snap beans on which they were grown and were placed in 100×20 mm plastic petri dishes for testing. Five larvae were used per replicate.
Two 4- to 6-day-old Bountiful green bean primry leaves (approximately 6 sq. in. of leaf surface) were used for each replicate. Two replicates were run per compound.
[…] […] The nozzle of the atomizer was held 12 to 18 inches from the leaves and was supplied with 5-6 psi air pressure. The atomizer was rinsed with acetone after each compound was sprayed. The plants were allowed to dry. The leaves were then cut from the plants and placed in the petri dishes containing the bean beetle larvae. A small wad of wet cellucotton was added to each dish to help prevent the leaves from wilting.
After 4 days, a mortality count was made and the amount of feeding was noted. Moribund larvae were counted as dead.

Velvetleaf = assay: Pre-emergence herbicide test, velvetleaf; type: in vivo, Abutilon theophrasti
Procedure: (§1) In this evaluation, each compound to be tested was dissolved in a 1:1 mixture of acetone and ethanol containing a small amount of Toximul R and Toximul S (each a sulfonate/nonionic blend produced by Stepan Chemical Company, Northfield, Illinois). The solution was then diluted with deionized water to a composition of the following concentrations, by weight: Plant species used as indicators of herbicidal activity were planted in galvanized pans (flats) 31.5 cm. long, 21.5 cm. wide, and 8.0 cm. deep. The bottoms of the flats had holes to facilitate drainage. The soil used was a 1:1 ratio by volume of masonry sand and shredded top soil. Seeds of seven indicator species were planted in rows perpendicular to the long axis of the flat, one species per row, and covered with 0.5 to 1.0 cm. of sterilized soil. Indicator species and approximate number of seeds planted were as follows: Flats that were to receive preemergence treatments were planted one day prior to, or on the same day treatments were applied. Flats that were to receive postemergence treatments were planted 9 days prior to treatment and placed in a growth chamber until the day of treatment. In the growth chamber, flats received 12 to 18 hours of light per day and were subject to temperatures of 75° to 85° F. The formulated test compound was applied uniformly to the indicator species with a modified DeVilbiss atomizer using air pressure of 3 to 5 psi. Each flat received 12.5 ml. of spray solution which was equal to 200 gallons/acre total spray volume. Plants were maintained in a greenhouse after treatment. Herbicidal effects of chemicals were evaluated by two injury rating systems 18 days after preemergence applications and 14 days after postemergence applications. The degree of plant injury was based on a 1 to 5 scale and a single numerical rating was assigned to each test species as follows: […]

Corn = assay: Post-emergence herbicide test, corn; type: in vivo, Zea mays
Procedure: as §1

Large Crabgrass = assay: Pre-emergence herbicide test, large crabgrass; type: in vivo, Digitaria sanguinalis
Procedure: as §1

Mustard = assay: Pre-emergence herbicide test, mustard; type: in vivo
Procedure: as §1, with “soil.” for “soil. Seeds of seven indicator species were planted in rows perpendicular to the long axis of the flat, one species per row, and covered with 0.5 to 1.0 cm. of sterilized soil. Indicator species and approximate number of seeds planted were as follows:”

Cotton = assay: Pre-emergence herbicide test, cotton; type: in vivo
Procedure: as §1, with “soil.” for “soil. Seeds of seven indicator species were planted in rows perpendicular to the long axis of the flat, one species per row, and covered with 0.5 to 1.0 cm. of sterilized soil. Indicator species and approximate number of seeds planted were as follows:”

Tomato = assay: Pre-emergence herbicide test, tomato; type: in vivo
Procedure: as §1, with “soil.” for “soil. Seeds of seven indicator species were planted in rows perpendicular to the long axis of the flat, one species per row, and covered with 0.5 to 1.0 cm. of sterilized soil. Indicator species and approximate number of seeds planted were as follows:”

Soybean = assay: Pre-emergence herbicide test, soybean; type: in vivo
Procedure: as §1, with “soil.” for “soil. Seeds of seven indicator species were planted in rows perpendicular to the long axis of the flat, one species per row, and covered with 0.5 to 1.0 cm. of sterilized soil. Indicator species and approximate number of seeds planted were as follows:”

Sugar Beet = assay: Pre-emergence herbicide test, sugar beet; type: in vivo
Procedure: as §1, with “soil.” for “soil. Seeds of seven indicator species were planted in rows perpendicular to the long axis of the flat, one species per row, and covered with 0.5 to 1.0 cm. of sterilized soil. Indicator species and approximate number of seeds planted were as follows:”

Lambsquarter = assay: Pre-emergence herbicide test, lambsquarter; type: in vivo
Procedure: as §1, with “soil.” for “soil. Seeds of seven indicator species were planted in rows perpendicular to the long axis of the flat, one species per row, and covered with 0.5 to 1.0 cm. of sterilized soil. Indicator species and approximate number of seeds planted were as follows:”

Wild Oat = assay: Pre-emergence herbicide test, wild oat; type: in vivo
Procedure: as §1, with “soil.” for “soil. Seeds of seven indicator species were planted in rows perpendicular to the long axis of the flat, one species per row, and covered with 0.5 to 1.0 cm. of sterilized soil. Indicator species and approximate number of seeds planted were as follows:”

O=[N+]([O-])c1cc(Cl)cc2c1NC(O)(C(F)F)N2 (stereo not drawn) [Example 5, 2-Hydroxy-2-(Difluoromethyl)-4-Nitro-6-Chlorobenzimidazoline, Calcium Salt]
Mexican Bean Beetle Stom. (mortality rating) (Mexican bean beetle; 1000 ppm): 3 (100) | plant injury rating (Velvetleaf; 8 lb/A): 3RS | plant injury rating (Corn; 1 lb/A): 1 (no injury) | plant injury rating (Corn; 2 lb/A): 2B | plant injury rating (Corn; 4 lb/A): 4BS | plant injury rating (Corn; 8 lb/A): 5D | plant injury rating (Large Crabgrass; 8 lb/A): 3RS

O=[N+]([O-])c1cc(C(F)(F)F)cc2c1NC(O)(C(F)(F)C(F)F)N2 (stereo not drawn) [Example 2, 2-Hydroxy-2-(1,1,2,2-Tetrafluoroethyl)-4-Nitro-6-(Trifluoromethyl)Benzimidazoline, Sodium Salt, and Hydrate]
Mexican Bean Beetle Feed. (feeding rating) (Mexican bean beetle; 100 ppm): 0 (none of the leaves eaten) | Mexican Bean Beetle Stom. (mortality rating) (Mexican bean beetle; 100 ppm): 3 (100) | Mexican Bean Beetle Stom. (mortality rating) (Mexican bean beetle; 1000 ppm): 3 (100) | plant injury rating (Mustard; 1/2 lb/A): 2S | plant injury rating (Mustard; 1/4 lb/A): 1 (no injury) | plant injury rating (Mustard; 1 lb/A): 4B | plant injury rating (Mustard; 2 lb/A): 5D | plant injury rating (Mustard; 4 lb/A): 5D | plant injury rating (Velvetleaf; 1/2 lb/A): 1 (no injury) | plant injury rating (Velvetleaf; 1/4 lb/A): 1 (no injury) | plant injury rating (Velvetleaf; 1 lb/A): 1 (no injury) | plant injury rating (Velvetleaf; 2 lb/A): 2S | plant injury rating (Velvetleaf; 4 lb/A): 4BS | plant injury rating (Velvetleaf; 8 lb/A): 5D | plant injury rating (Cotton; 1/2 lb/A): 1 (no injury) | plant injury rating (Cotton; 1/4 lb/A): 1 (no injury) | plant injury rating (Cotton; 2 lb/A): 1 (no injury) | plant injury rating (Cotton; 4 lb/A): 2B | plant injury rating (Tomato; 1/2 lb/A): 2S | plant injury rating (Tomato; 1/4 lb/A): 1 (no injury) | plant injury rating (Tomato; 2 lb/A): 1 (no injury) | plant injury rating (Tomato; 4 lb/A): 4BS | plant injury rating (Soybean; 1/2 lb/A): 1 (no injury) | plant injury rating (Soybean; 1/4 lb/A): 1 (no injury) | plant injury rating (Soybean; 1 lb/A): 1 (no injury) | plant injury rating (Soybean; 2 lb/A): 1 (no injury) | plant injury rating (Soybean; 4 lb/A): 2B | plant injury rating (Sugar Beet; 1/2 lb/A): 2S | plant injury rating (Sugar Beet; 1/4 lb/A): 1 (no injury) | plant injury rating (Sugar Beet; 2 lb/A): 5D | plant injury rating (Sugar Beet; 4 lb/A): 5N | plant injury rating (Lambsquarter; 1/2 lb/A): 2S | plant injury rating (Lambsquarter; 1/4 lb/A): 1 (no injury) | plant injury rating (Lambsquarter; 2 lb/A): 5D | plant injury rating (Lambsquarter; 4 lb/A): 5D | plant injury rating (Corn; 1/2 lb/A): 1 (no injury) | plant injury rating (Corn; 1/4 lb/A): 1 (no injury) | plant injury rating (Corn; 2 lb/A): 3BS | plant injury rating (Corn; 4 lb/A): 3BS | plant injury rating (Corn; 8 lb/A): 5D | plant injury rating (Wild Oat; 1/2 lb/A): 1 (no injury) | plant injury rating (Wild Oat; 1/4 lb/A): 1 (no injury) | plant injury rating (Wild Oat; 1 lb/A): 1 (no injury) | plant injury rating (Wild Oat; 2 lb/A): 2 (slight injury) | plant injury rating (Wild Oat; 4 lb/A): 5 (death) | plant injury rating (Large Crabgrass; 1/2 lb/A): 1 (no injury) | plant injury rating (Large Crabgrass; 1/4 lb/A): 1 (no injury) | plant injury rating (Large Crabgrass; 1 lb/A, Hydrate): 3S and 2S | plant injury rating (Large Crabgrass; 2 lb/A): 4RS | plant injury rating (Large Crabgrass; 4 lb/A): 4RS | plant injury rating (Large Crabgrass; 8 lb/A): 5N

O=[N+]([O-])c1cc(C(F)(F)F)cc2c1NC(O)(C(F)(F)C(F)F)N2O (stereo not drawn) [Example 12, 1,2-Dihydroxy-2-(1,1,2,2-Tetrafluoroethyl)-4-Nitro-6-(Trifluoromethyl)Benzimidazoline]
Mexican Bean Beetle Stom. (mortality rating) (Mexican bean beetle; 1000 ppm): 3 (100) | plant injury rating (Mustard; 1/2 lb/A): 1 (no injury) | plant injury rating (Mustard; 1 lb/A): 1 (no injury) | plant injury rating (Mustard; 2 lb/A): 2S | plant injury rating (Velvetleaf; 1/2 lb/A): 1 (no injury) | plant injury rating (Velvetleaf; 1 lb/A): 1 (no injury) | plant injury rating (Velvetleaf; 2 lb/A): 1 (no injury) | plant injury rating (Velvetleaf; 8 lb/A): 3BS | plant injury rating (Cotton; 1/2 lb/A): 1 (no injury) | plant injury rating (Cotton; 1 lb/A): 1 (no injury) | plant injury rating (Cotton; 2 lb/A): 1 (no injury) | plant injury rating (Tomato; 1/2 lb/A): 1 (no injury) | plant injury rating (Tomato; 1 lb/A): 1 (no injury) | plant injury rating (Tomato; 2 lb/A): 1 (no injury) | plant injury rating (Soybean; 1/2 lb/A): 1 (no injury) | plant injury rating (Soybean; 1 lb/A): 1 (no injury) | plant injury rating (Soybean; 2 lb/A): 1 (no injury) | plant injury rating (Sugar Beet; 1/2 lb/A): 1 (no injury) | plant injury rating (Sugar Beet; 1 lb/A): 1 (no injury) | plant injury rating (Sugar Beet; 2 lb/A): 3S | plant injury rating (Lambsquarter; 1/2 lb/A): 1 (no injury) | plant injury rating (Lambsquarter; 1 lb/A): 3SB | plant injury rating (Lambsquarter; 2 lb/A): 3S | plant injury rating (Corn; 1/4 lb/A): 1 (no injury) | plant injury rating (Corn; 1/8 lb/A): 1 (no injury) | plant injury rating (Corn; 1 lb/A): 1 (no injury) | plant injury rating (Corn; 2 lb/A): 2B | plant injury rating (Corn; 8 lb/A): 1 (no injury) | plant injury rating (Wild Oat; 1/2 lb/A): 1 (no injury) | plant injury rating (Wild Oat; 1 lb/A): 1 (no injury) | plant injury rating (Wild Oat; 2 lb/A): 2B | plant injury rating (Large Crabgrass; 1/2 lb/A): 1 (no injury) | plant injury rating (Large Crabgrass; 1 lb/A): 2S | plant injury rating (Large Crabgrass; 2 lb/A): 4SB | plant injury rating (Large Crabgrass; 8 lb/A): 4RS
